{"source": "patent US6680055B1", "about": "“Mycolactone and related compounds, compositions and methods of use” (priority 1999, dated 2004)", "key": {"[1]": {"experiment": "Biological activity level of mycolactones (test not specified)"}, "[2]": {"tested_on": "MCF-7 breast cancer cells", "experiment": "National Cancer Institute growth testing, MCF-7", "format": "cell-based", "method": "(§1) Acetone-soluble lipids (ASLs) were prepared from intact M. ulcerans cells as in Example 1, except that the acetone resuspension was applied to a preparative TLC plate to allow substantial separation of the ASLs based on relative mobility in the TLC system. The ASL with a mobility of 0.23 relative to the solvent front was scraped from the plate and resuspended."}, "[3]": {"tested_on": "infiltration of macrophages and polymorphonuclear neutrophils", "experiment": "Inflammatory reaction at site of M. marinum infection in guinea pigs", "format": "in vivo, Hartley guinea pigs", "conditions": "16 hours after infection", "method": "Mycolactone was purified as in Example 2. Hartley guinea pigs were inoculated with an infectious quantity of M. marinum. When the inoculum was not accompanied by mycolactone, a painful, purulent lesion developed in the guinea pigs, indicative of an inflammatory reaction. In contrast, when mycolactone was injected into the locus, tissue necrosis still developed, but the infiltration of macrophages and polymorphonuclear neutrophils was delayed by 24 to 48 hours, resulting in greater than a 1,000-fold reduction in the number of neutrophils invading the site of infection 16 hours after infection. Inflammation, or the lack thereof, was confirmed by histopathological examination of paraffin embedded tissues stained with eosin and hematoxylin. While not desiring to be bound by any particular theory, it is believed that the subsequent inflammation that occurred in mycolactone-treated animals was partially a consequence of the continued growth of M. marinum. When the polyketide macrolides of the present invention are used to decrease inflammation at a site of infection, the inventive method is optionally accompanied by the administration of antibiotics."}, "[4]": {"tested_on": "SF-268 central nervous system cancer cells", "experiment": "National Cancer Institute growth testing, SF-268", "format": "cell-based", "method": "as §1"}, "H460 lung cancer cells": {"tested_on": "H460 lung cancer cells", "experiment": "National Cancer Institute growth testing, H460", "format": "cell-based", "method": "as §1"}}, "data": [{"smiles": "C/C1=C/C[C@H]([C@@H](C)C/C(C)=C/[C@@H](C)[C@H](O)C[C@@H](C)O)OC(=O)CCC[C@H](OC(=O)/C=C/C(C)=C/C(C)=C/C=C/C(C)=C/[C@H](O)[C@@H](O)C[C@H](C)O)[C@@H](C)C1", "note": "[B]", "values": [{"measurement": "biological activity of isomers compared", "setting": "[1]; isomers differing at the 4′ position", "result": "same biological activity"}]}, {"smiles": "CC(=C/C(C)=C/C=C/C(C)=C/C(O)C(O)CC(C)O)/C=C/C(=O)OC1CCCC(=O)OC(C(C)C/C(C)=C/C(C)C(O)CC(C)O)C/C=C(\\C)CC1C", "note": "(stereo not drawn) [mycolactone]", "values": [{"measurement": "relative growth rate", "setting": "[2]", "result": "−78", "unit": "%"}, {"measurement": "reduction in the number of neutrophils invading the site of infection", "setting": "[3]", "result": "> 1,000 fold"}, {"measurement": "relative growth rate", "setting": "[4]", "result": "−79", "unit": "%"}, {"measurement": "relative growth rate", "setting": "H460 lung cancer cells", "result": "−72", "unit": "%"}]}, {"smiles": "CC(=C\\C=C\\C(C)=C\\C[C@@H](O)C[C@H](C)O)/C=C(C)/C=C/C(=O)O[C@H]1CCCC(=O)O[C@@H]([C@@H](C)C/C(C)=C/[C@@H](C)[C@H](O)C[C@@H](C)O)C/C=C(\\C)C[C@@H]1C", "note": "[mycolactone C]", "values": [{"measurement": "activity level relative to the other mycolactones", "setting": "[1]; mycolactone found in Australian isolates", "result": "about 10,000 fold lower"}]}]}
